Assay results: patent US12121026B1, “N-[(1-phenyl-4H-1,2,4-triazol-3-yl) carbamothioyl]benzamide as an eco-friendly insecticidal agent against spodoptera littoralis” (KING FAISAL UNIVERSITY, priority 2023, dated 2024)
In brackets after ≈: the same amount, converted by molar mass. Where two headings read alike, the source gives them in different places.

Test system: second and fourth instars larvae of the laboratory strain of cotton leafworm, S. littoralis
Assay: Insecticidal bioassay screening (castor leaf dip)
Assay type: in vivo
Settings: for Toxicity index %: 72 hrs, Diflubenzuron's LC50/compound's LC50 x100; for LC90 (mg/L) at 95%: after 72 hrs of treatment; for LC50: Spodoptera littoralis, foliar
Procedure: Five concentrations (200, 100, 50, 25, 12.5 ppm) were designed for this synthetic compound and the reference Diflubenzuron compound as the dynamic ingredients based on ppm via diluting the commercial formulation.
In this experiment, castor leaves are immersed in each of the previously prepared concentrations of the components for 10 seconds and then left to dry for 60 minutes. Larvae of the second and fourth instars of each checked strain are prepared with treated leaves in gauze-covered glass containers for 72 hrs. An untreated control is made in which leaves are dipped in triton x-100 and distilled water only. Then the preserved leaves were removed & fresh, untreated leaves were provided for 72 hours. Three replicates (10 larvae each) were checked for each concentration. Daily inspection was carried out for all treatments and mortality percentages were recorded 3 days (72 hours) after treatment. The average mortality percentage was corrected employing Abbott's formula. The corrected mortality rate for each of the previously synthesized compounds is statistically calculated according to Finney (1970). Through this rate, the corresponding concentration test lines (LDP lines) are assessed.

[1] = 72 h, read-out: LC50 (mg/L) at 95%, 2nd instar larvae, after 72 hrs of treatment
[2] = 72 h, read-out: LC50 (mg/L) at 95%, 4th instar larvae, after 72 hrs of treatment
[3] = against Spodoptera littoralis under laboratory conditions, instar not stated

| Structure (SMILES) | Toxicity index % (2nd instar larvae) | LC90 (mg/L) at 95% (2nd instar larvae) | LC90 (mg/L) at 95% (2nd instar larvae, listed as N-[(1-phenyl-4H-1,2,4-triazol-3-yl)carbamothioyl]benzamide) | Toxicity index % (4th instar larvae) | LC90 (mg/L) at 95% (4th instar larvae) | LC90 (mg/L) at 95% (4th instar larvae, listed as N-[(1-phenyl-4H-1,2,4-triazol-3-yl)carbamothioyl]benzamide) | LC50 [1] | LC50 [2] | LC50 [3] |
| --- | --- | --- | --- | --- | --- | --- | --- | --- | --- |
| O=C(NC(=S)Nc1ncn(-c2ccccc2)n1)c1ccccc1 [Compound 1, N-[(1-phenyl-1H-1,2,4-triazol-3-yl)carbamothioyl]benzamide] | 22.8% | 1733.6 mg/L (≈ 5360 µM) | about 1733.6 mg/L | 36.7% | 4090.2 mg/L (≈ 12600 µM) | about 4090.2 mg/L | ~198 mg/L (≈ 613 µM) | ~392 mg/L (≈ 1210 µM) | 198 mg/L (≈ 613 µM) |
| O=C(NC(=O)c1c(F)cccc1F)Nc1ccc(Cl)cc1 [Diflubenzuron, reference compound] | 100% | 520.0 mg/L (≈ 1670 µM) |  | 100% | 1540.5 mg/L (≈ 4960 µM) |  | 45.2 mg/L (≈ 145 µM) | 144 mg/L (≈ 464 µM) | 45.2 mg/L (≈ 145 µM) |
